According to publication PMC8566451, “Lead optimization of novel quinolone chalcone compounds by a structure–activity relationship (SAR) study to increase efficacy and metabolic stability” (Scientific Reports, 2021):

What was measured:
MDA-MB435 = assay: Sulforhodamine B (SRB) assay; assay type: cell-based; details: Homo sapiens, MDA-MB-435, MDA-MB435 cells, 48 h
Experimental: (§1) The human MDA-MB-231, MCF7, MDA-MB-468, RPMI-8226 and HeLa cell lines were purchased from ATCC and maintained in Dulbecco's Modified Eagle Medium (DMEM)—high glucose supplemented with 10% fetal bovine serum (FBS) and antibiotics/antimycotics. Cell line authentication was carried out by Genetica DNA Laboratories (Burlington, NC) using a short tandem repeat (STR) profiling method (March 2015; July 2015; September 2016). Melanoma cells E-055 (MZ-Mel-3), E-097 (Mel-SOE), E-112 (UKRV-Mel-38), E-157 (UKRV-Mel-17) were obtained from the European Searchable Tumour Line Database (ESTDAB) cell bank (a kind gift of Dr. Graham Pawelec, Tubingen University, Germany). MDA-MB-435 was purchased from the Division of Cancer Treatment and Diagnosis Tumor Repository. All melanoma cells were cultured in Roswell Park Memorial Institute (RPMI) medium supplemented with 10% FBS and P/S/antimycotics. Primary human epidermal melanocytes from normal adult abdominal skin were purchased from ATCC (cat # PCS-200–013) and Cell Applications (cat#104-05a). The melanocytes were cultured in the media supplied by the companies.
(§2) The SRB assay was used to assess drug-induced cytotoxicity and cell proliferation as previously described[2],[33],[34] with a few modifications. Briefly, cells were plated 10,000 to 25,000 cells/cm^2 in 96-well plates (100 µl medium) and allowed to adhere overnight. The cell counts were different for each cell line to ensure optimal cell growth for the duration of the assay. Eight different concentrations of compound solutions using 2–4 times serial dilutions (100 µl). Cells were then incubated for an additional 48 h and then fixed with 100 µl ice-cold 10% (w/v) trichloroacetic acid (TCA) (without removing the cell medium, final concentration, 3.3% of TCA) and stained with 0.4% SRB (w/v) in 1% acetic acid (v/v). The relative growth rate (%) was calculated for each of the compound concentrations according to the following formula: 100 * (T − T0)/(C − T0), in which T is the optical density (OD) after exposure to a certain concentration of the compound after 48 h, T0 is the OD at the start of drug exposure (time zero) and C is the control growth. The GI50 for each compound was obtained from a non-linear sigmoidal dose–response (variable slope) curve fitted by GraphPad Prism v.4.03 software.

MDA-MB231 = assay: Sulforhodamine B (SRB) assay; assay type: cell-based; details: Homo sapiens, MDA-MB-231; MDA-MB231 breast cancer cells, 48 h, SRB
Experimental: as §1, §2

UKRV-Mel-17 = assay: Sulforhodamine B (SRB) assay; assay type: cell-based; details: UKRV-Mel-17 melanoma cells, 48 h
Experimental: as §1, §2

HeLa = assay: Sulforhodamine B (SRB) assay; assay type: cell-based; details: Homo sapiens; HeLa cervical cancer cells, 48 h, SRB
Experimental: as §1, §2

MDA-MB468 = assay: Sulforhodamine B (SRB) assay; assay type: cell-based; details: Homo sapiens, MDA-MB-468, MDA-MB468 breast cancer cells, 48 h
Experimental: as §1, §2

MZ-Mel-3 = assay: Sulforhodamine B (SRB) assay; assay type: cell-based; details: MZ-Mel-3 melanoma cells, 48 h
Experimental: as §1, §2

Mel-SOE = assay: Sulforhodamine B (SRB) assay; assay type: cell-based; details: Mel-SOE melanoma cells, 48 h
Experimental: as §1, §2

MCF7 = assay: Sulforhodamine B (SRB) assay; assay type: cell-based; details: Homo sapiens; MCF7 breast cancer cells, 48 h, SRB
Experimental: as §1, §2

UKRV-Mel-38 = assay: Sulforhodamine B (SRB) assay; assay type: cell-based; details: UKRV-Mel-38 melanoma cells, 48 h
Experimental: as §1, §2

HeLa cells = assay: Cell cycle analysis by flow cytometry; assay type: cell-based, human; details: 3× GI50, 12 or 24 h, HeLa and UKRV-Mel-38 (Supplemental Fig. S11)
Experimental: Figure 5 CTR-21 arrests cells at G2/M, eventually leading to cell death by apoptosis. (a) Effects of CTR-21 on the cell cycle progression of HeLa and E112 cells. […] (b) Cell morphology of CTR-21 arrested cells. HeLa cells were treated with 30 nM of CTR-21 for 12 h, fixed with methanol and immunostained with α-tubulin or γ-tubulin, and counterstained with DAPI. Bar = […]. (c) CTR-21 promotes PARP cleavage. […] GAPDH was used as a loading control.
Cell cycle progression was determined using flow cytometry. UKRV-Mel-38 and HeLa cells were plated onto 10 cm plate at a density of 0.5 million and treated them with or without the compounds the following day for 12, 24 or 48 h. Cells were then harvested and centrifuged at 1000 rpm for 5 min, washed in PBS and then fixed with ice-cold ethanol (70%) for at least 24 h at − 20 °C. The cells were centrifuged, re-suspended in PBS solution, followed by centrifugation. The cell pellet was then stained with 100 μg/mL propidium iodide (PI) and 100 μg/mL RNase A in distilled water for at least 1 h. DNA content was measured using a Beckmann Coulter Cytomics FC500 (Beckman Coulter, Fullerton, CA), and the proportion of cell populations in G0/G1, S, and G2/M phases of cell cycle was calculated on the basis of DNA distribution histograms using CXP software (Beckman Coulter, Fullerton, CA).

[1] = tested on: cancer cell lines (breast cancer, melanoma, cervical cancer); assay: SRB assay, average GI50 over cancer cell lines; assay type: cell-based
Experimental: as §2

MDA-MB231-TaxR = assay: Sulforhodamine B (SRB) assay; assay type: cell-based; details: Homo sapiens, MDA-MB231-TaxR paclitaxel-resistant breast cancer cells, 48 h
Description: We had initially determined that quinolone chalcones were promising anti-proliferative through a first round screening and identified CTR-17 and CTR-20 as favorable structures for anticancer activity. […] We carried out a comparative SAR study to determine if we could further optimize the quinolone chalcone to maximize efficacy. The Sulforhodamine B (SRB) assay was used to measure the anti-proliferative/cell killing activities of CTRs, for which several different cell lines were use: the cervical cancer HeLa, the breast cancer cell lines MDA-MB231, MDA-MB468, MDA-MB231TaxR (an induced paclitaxel-resistant sub-cell line of the MDA-MB231[9]) and MCF7. In addition, a subset was tested against the melanoma cell lines MZ-MEL-3.1, Mel-SOE, UKRV-Mel-38, UKRV-Mel-17 and MDA-MB-435 (Table 1, Supplemental Table S1).
as §2

porcine tubulin = target: T1, porcine tubulin (Sus scrofa, UniProt P02550+P02554); assay: In vitro tubulin polymerization assay; assay type: biochemical; details: 3 µM compound, 20 µM porcine tubulin, 37 °C, 60 min
T1 construct: purchased Cytoskeleton Inc., Denver, CO BK011P
Experimental: Spontaneous polymerization of 20 µM porcine tubulin was initiated with the addition of 1 mmol/L GTP at 37 °C and monitored every minute for 60 min in the presence of the indicated concentration of CTR-21, CTR-32, nocodazole, paclitaxel, or a DMSO vehicle control. To make the graph simpler, only 3 µM concentration is shown. […] A modified Dixon plot was used to determine the inhibitory concentration of CTR-21 and CTR-32 (Ki).
Microtubule assembly was assessed using a Tubulin Polymerization assay kit (BK011P; Cytoskeleton Inc., Denver, CO). […] Polymerization was started by incubating at 37 °C and followed by absorbance readings every 1 min at 340 nm for 1 h using a Synergy H4 plate reader.

T1 sequence (P02554 whole entry): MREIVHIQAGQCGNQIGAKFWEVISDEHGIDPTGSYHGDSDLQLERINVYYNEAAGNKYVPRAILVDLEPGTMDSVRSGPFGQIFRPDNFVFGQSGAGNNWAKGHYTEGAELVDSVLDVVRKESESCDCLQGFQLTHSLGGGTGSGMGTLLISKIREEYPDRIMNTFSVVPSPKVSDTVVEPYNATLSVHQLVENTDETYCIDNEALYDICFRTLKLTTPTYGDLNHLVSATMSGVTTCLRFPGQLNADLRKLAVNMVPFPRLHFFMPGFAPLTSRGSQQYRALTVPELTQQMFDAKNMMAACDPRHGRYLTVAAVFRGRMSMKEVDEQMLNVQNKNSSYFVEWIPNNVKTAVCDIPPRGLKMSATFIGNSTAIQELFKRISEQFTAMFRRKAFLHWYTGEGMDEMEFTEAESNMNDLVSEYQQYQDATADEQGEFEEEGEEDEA
T1 sequence (P02550 whole entry): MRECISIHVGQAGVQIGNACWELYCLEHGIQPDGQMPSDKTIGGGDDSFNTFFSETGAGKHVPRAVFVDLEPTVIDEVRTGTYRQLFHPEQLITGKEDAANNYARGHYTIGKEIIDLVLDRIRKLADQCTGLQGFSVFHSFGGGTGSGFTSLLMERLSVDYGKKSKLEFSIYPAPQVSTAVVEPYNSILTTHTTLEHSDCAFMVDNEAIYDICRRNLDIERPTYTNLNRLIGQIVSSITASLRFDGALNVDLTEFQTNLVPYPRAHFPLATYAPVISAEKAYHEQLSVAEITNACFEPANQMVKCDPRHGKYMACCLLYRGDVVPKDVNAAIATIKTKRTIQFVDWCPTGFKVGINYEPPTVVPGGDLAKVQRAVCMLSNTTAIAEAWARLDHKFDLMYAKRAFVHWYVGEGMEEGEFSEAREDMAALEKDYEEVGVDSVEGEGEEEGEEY

Row | GI50 ([1]; average over the cell lines of Table 1 or Supplemental Table S1, read-out: average GI50) [µM] | Structure (SMILES) | GI50 (MDA-MB435) [µM] | GI50 (MDA-MB231) [µM] | GI50 (UKRV-Mel-17) [µM] | GI50 (HeLa) [µM] | GI50 (MDA-MB468) [µM] | GI50 (MZ-Mel-3) [µM] | GI50 (Mel-SOE) [µM] | GI50 (MCF7) [µM] | GI50 (UKRV-Mel-38) [µM] | cell cycle effect (HeLa cells) | potency compared to CTR-17 [1] | GI50 (MDA-MB231-TaxR) [µM] | effect on tubulin polymerization (porcine tubulin)
1 | 7.3 | COc1ccc2cc(/C=C/C(=O)c3ccccc3OC)c(=O)[nH]c2c1 [CTR-19, (E)-7-Methoxy-3-(3-(2-methoxyphenyl)-3-oxoprop-1-enyl) quinolin-2(1H)-one] | 4.72 ± 2.76 | 6.51 ± 1.39 | 11.2 | 6.82 ± 1.39 | 3.54 ± 0.06 | 6.83 ± 0.957 | 10.1 | 11.9 | 3.77 ± 0.206 | arrests cells in G2/M, albeit at a much higher concentration | lower toxicity potency | 7.09 ± 1.06 | 
2 |  | COC(=O)Nc1nc2ccc(C(=O)c3cccs3)cc2[nH]1 [Noco, Nocodazole, reference compound] | 0.018 ± 0.002 | 0.035 ± 0.004 | 0.039 ± 0.001 | 0.025 ± 0.001 | 0.048 ± 0.007 | 0.023 ± 0.002 | 0.051 ± 0.011 | 0.033 ± 0.007 | 0.034 ± 0.003 |  |  | 0.047 ± 0.011 | reduced steady-state
